Patent publication US20140235585A1, “SUBSTITUTED DIARYL DERIVATIVES AS SPHINGOSINE RECEPTOR MODULATORS” (ALLERGAN, INC., priority 2013, published 2014)

Target: T1, human S1P1 receptor (Homo sapiens, UniProt P21453)
T1 construct: expressed in transfected cells; membranes from cells stably expressing the S1P1 receptor
Experiment: GTP γ35S binding assay for S1P1 activity
Format: biochemical
Details: Activity potency: S1P1 receptor from GTP γ35S; membranes of cells stably expressing the S1P1 receptor; agonist-induced binding
Experimental: Compounds were tested for S1P1 activity using the GTP γ^35S binding assay. These compounds may be assessed for their ability to activate or block activation of the human S1P1 receptor in cells stably expressing the S1P1 receptor. GTP γ^35S binding was measured in the medium containing (mM) HEPES 25, pH 7.4, MgCl2 10, NaCl 100, dithitothreitol 0.5, digitonin 0.003%, 0.2 nM GTP γ^35S, and 5 μg membrane protein in a volume of 150 μl. Test compounds were included in the concentration range from 0.08 to 5,000 nM unless indicated otherwise. Membranes were incubated with 100 μM 5′-adenylylimmidodiphosphate for 30 min, and subsequently with 10 μM GDP for 10 min on ice. Drug solutions and membrane were mixed, and then reactions were initiated by adding GTP γ^35S and continued for 30 min at 25° C. Reaction mixtures were filtered over Whatman GF/B filters under vacuum, and washed three times with 3 mL of ice-cold buffer (HEPES 25, pH7.4, MgCl2 10 and NaCl 100). Filters were dried and mixed with scintillant, and counted for ^35S activity using a β-counter. Agonist-induced GTP γ^35S binding was obtained by subtracting that in the absence of agonist. Binding data were analyzed using a non-linear regression method. In case of antagonist assay, the reaction mixture contained 10 nM S1P in the presence of test antagonist at concentrations ranging from 0.08 to 5000 nM.

T1 sequence (P21453 whole entry): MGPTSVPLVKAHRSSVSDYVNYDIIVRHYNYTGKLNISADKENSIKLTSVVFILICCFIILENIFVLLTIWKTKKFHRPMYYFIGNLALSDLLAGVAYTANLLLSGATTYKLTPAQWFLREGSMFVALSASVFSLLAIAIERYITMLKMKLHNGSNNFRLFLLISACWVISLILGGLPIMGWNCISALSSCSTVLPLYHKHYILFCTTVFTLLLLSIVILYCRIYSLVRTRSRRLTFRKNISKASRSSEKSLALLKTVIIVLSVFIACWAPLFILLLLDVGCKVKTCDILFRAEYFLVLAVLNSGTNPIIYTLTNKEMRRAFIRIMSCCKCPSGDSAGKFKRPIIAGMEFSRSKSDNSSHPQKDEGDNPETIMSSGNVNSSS

Row | SMILES | EC50 [nM]
1 | O=P(O)(O)CCCNCc1ccc(CC/N=c2\scc(-c3ccccc3)n2-c2ccccc2)cc1 [Compound 1, (3-{[4-(2-{[(2Z)-3,4-diphenyl-1,3-thiazol-2(3H)-ylidene]amino}ethyl)benzyl]amino}propyl)phosphonic acid] | 31
2 | O=C(O)CCNCc1ccc(CC/N=c2\scc(-c3ccccc3)n2-c2ccccc2)cc1 [Compound 2, 3-{[4-(2-{[(2Z)-3,4-diphenyl-1,3-thiazol-2(3H)-ylidene]amino}ethyl)benzyl]amino}propanoic acid] | 658
3 | O=P(O)(O)CCCNCc1ccc(CCSc2ncc(-c3ccccc3)n2-c2ccccc2)cc1 [Compound 3, {3-[(4-{2-[(1,5-diphenyl-1H-imidazol-2-yl)thio]ethyl}benzyl)amino]propyl}phosphonic acid] | 86
